Experimental data from PubChem BioAssay (NCI).
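Dose response: 5 concentrations. Exposure: 48 h. Format: 96-well plates. Endpoint: linear interpolation; highest concentration if not reached. GI50 marks 50% less growth. The concentration for full growth arrest is given as TGI.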 Where a SMILES comes first, the peptide text is derived from it. The star is where a group is joined. Boc = CC(C)(C)OC(=O)*; OBn = c1ccc(CO*)cc1

Assays:
Experiment in all cases: DTP human tumour cell line panel, 48 h
ACHN renal = system: ACHN renal
HOP-62 NSCLC = system: HOP-62 NSCLC
MOLT-4 leukemia = system: MOLT-4 leukemia
NCI-H226 lung = system: NCI-H226 lung
NCI-H522 lung = system: NCI-H522 lung
NCI/ADR-RES ovarian = system: NCI/ADR-RES ovarian
OVCAR-3 ovarian = system: OVCAR-3 ovarian
OVCAR-5 ovarian = system: OVCAR-5 ovarian
SR leukemia = system: SR leukemia
M14 melanoma = system: M14 melanoma

Structure (SMILES)	TGI (ACHN renal)	TGI (HOP-62 NSCLC)	TGI (MOLT-4 leukemia)	TGI (NCI-H226 lung)	TGI (NCI-H522 lung)	TGI (NCI/ADR-RES ovarian)	TGI (OVCAR-3 ovarian)	TGI (OVCAR-5 ovarian)	TGI (SR leukemia)	TGI (M14 melanoma)	GI50 (ACHN renal)	GI50 (HOP-62 NSCLC)	GI50 (MOLT-4 leukemia)	GI50 (NCI-H226 lung)	GI50 (NCI-H522 lung)	GI50 (NCI/ADR-RES ovarian)	GI50 (OVCAR-3 ovarian)	GI50 (OVCAR-5 ovarian)	GI50 (SR leukemia)
CC(C)=CCOc1cc(NC(=S)c2ccsc2C)ccc1Cl	> 100 µM	58.9 µM	> 100 µM	> 100 µM	> 100 µM	> 100 µM	> 100 µM	> 100 µM	84.4 µM	–	–	–	–	–	–	–	–	–	–
COC(=O)CCc1c(Cc2ccc[nH]2)[nH]c(C(=O)OCc2ccccc2)c1C	70.6 µM	39.9 µM	52.7 µM	35.4 µM	54.4 µM	52.1 µM	31 µM	> 100 µM	66.5 µM	30.4 µM	–	–	–	–	–	–	–	–	–
COc1ccc(C(Cc2ccccc2)C2NC(=S)NC2=O)cc1 (stereo not drawn)	> 25 µM	> 25 µM	> 25 µM	> 25 µM	> 25 µM	> 25 µM	> 25 µM	> 25 µM	> 25 µM	> 25 µM	–	–	–	–	–	–	–	–	–
O=[N+]([O-])c1ccc2oc(=Nc3ccccc3)c(Nc3ccccc3)nc2c1	> 100 µM	> 100 µM	> 100 µM	> 100 µM	67.2 µM	> 100 µM	–	> 100 µM	> 100 µM	–	–	–	–	–	–	–	–	–	–
Oc1ccccc1C1C=C(c2ccccc2)NC(N2CCCCC2)=C1c1nc2ccccc2[nH]1 (stereo not drawn)	47.7 µM	27.4 µM	57.6 µM	35.1 µM	27.7 µM	34 µM	29.8 µM	32 µM	35.3 µM	25.9 µM	–	–	–	–	–	–	–	–	–
Nc1cccc(S(=O)(=O)Nc2nnc(S(N)(=O)=O)s2)c1	> 100 µM	> 100 µM	> 100 µM	> 100 µM	> 100 µM	> 100 µM	> 100 µM	> 100 µM	> 100 µM	> 100 µM	–	–	–	–	–	–	–	–	–
CCCCCCCCCC(=O)N[C@@H](c1ccco1)[C@@H](O)C(=O)O[C@H]1C[C@@]2(O)[C@@H](OC(=O)c3ccccc3)[C@@H]3[C@]4(OC(C)=O)CO[C@@H]4C[C@H](O)[C@@]3(C)C(=O)[C@H](OC(C)=O)C(=C1C)C2(C)C	> 22.7 µM	1.68 µM	2.3 µM	9.53 µM	0.631 µM	20.5 µM	3.48 µM	0.151 µM	10 µM	–	–	–	–	–	–	–	–	–	–
Cc1ccnc2nc(N)ccc12	> 100 µM	–	> 100 µM	> 100 µM	> 100 µM	> 100 µM	–	> 100 µM	> 100 µM	> 100 µM	–	–	–	–	–	–	–	–	–
NC(=O)c1cc(N(CCO)CCO)c([N+](=O)[O-])cc1[N+](=O)[O-]	> 100 µM	> 100 µM	> 100 µM	> 100 µM	> 100 µM	> 100 µM	> 100 µM	> 100 µM	> 100 µM	> 100 µM	–	–	–	–	–	–	–	–	–
Nc1ccc(Nc2cc(=O)[nH]c(=O)[nH]2)cc1	> 100 µM	> 100 µM	> 100 µM	> 100 µM	> 100 µM	> 100 µM	> 100 µM	–	> 100 µM	–	–	–	–	–	–	–	–	–	–
COc1ccc(C2OCCN2C)cc1 (stereo not drawn)	> 100 µM	> 100 µM	> 100 µM	> 100 µM	> 100 µM	> 100 µM	> 100 µM	> 100 µM	> 100 µM	> 100 µM	–	–	–	–	–	–	–	–	–
CC(=O)NC1=C(NCCCl)C(=O)c2ccccc2C1=O	> 100 µM	> 100 µM	75.5 µM	> 100 µM	59.3 µM	74 µM	> 100 µM	> 100 µM	> 100 µM	27.7 µM	–	–	–	–	–	–	–	–	–
COC(=O)[C@@](C)(COC(=O)C(C)(C)C)NC(=O)OC(C)(C)C	> 100 µM	> 100 µM	> 100 µM	> 100 µM	> 100 µM	> 100 µM	–	> 100 µM	> 100 µM	> 100 µM	–	–	–	–	–	–	–	–	–
O=S(=O)(O)c1cccc2cccc(N=Nc3c(O)ccc4ccccc34)c12	> 100 µM	> 100 µM	> 100 µM	> 100 µM	> 100 µM	> 100 µM	> 100 µM	> 100 µM	> 100 µM	> 100 µM	–	–	–	–	–	–	–	–	–
OCC(CCc1ccccc1I)C1=CCC2(CC1)OCCO2 (stereo not drawn)	> 100 µM	37.4 µM	> 100 µM	88.2 µM	30.3 µM	48 µM	41.3 µM	34.1 µM	> 100 µM	35.3 µM	–	–	–	–	–	–	–	–	–
O=C(O)CC[P+](c1ccccc1)(c1ccccc1)c1ccccc1	> 100 µM	> 100 µM	> 100 µM	> 100 µM	> 100 µM	> 100 µM	56.5 µM	> 100 µM	> 100 µM	> 100 µM	–	–	–	–	–	–	–	–	–
O=C1C=C2CCC[C@H]3OC(=O)C[C@@]23CC1	> 100 µM	> 100 µM	> 100 µM	> 100 µM	> 100 µM	> 100 µM	> 100 µM	> 100 µM	> 100 µM	> 100 µM	–	–	–	–	–	–	–	–	–

Structure (SMILES)	TGI (ACHN renal)	TGI (HOP-62 NSCLC)	TGI (MOLT-4 leukemia)	TGI (NCI-H226 lung)	TGI (NCI-H522 lung)	TGI (NCI/ADR-RES ovarian)	TGI (OVCAR-3 ovarian)	TGI (OVCAR-5 ovarian)	TGI (SR leukemia)	TGI (M14 melanoma)	GI50 (ACHN renal)	GI50 (HOP-62 NSCLC)	GI50 (MOLT-4 leukemia)	GI50 (NCI-H226 lung)	GI50 (NCI-H522 lung)	GI50 (NCI/ADR-RES ovarian)	GI50 (OVCAR-3 ovarian)	GI50 (OVCAR-5 ovarian)	GI50 (SR leukemia)
CCOC(=O)C(NC(=O)CC)(Nc1ccc(S(=O)(=O)Nc2onc(C)c2C)cc1)C(F)(F)F (stereo not drawn)	> 100 µM	> 100 µM	> 100 µM	> 100 µM	> 100 µM	> 100 µM	> 100 µM	> 100 µM	> 100 µM	> 100 µM	–	–	–	–	–	–	–	–	–
O=C(Sc1c(-c2ccccc2)c(=O)n(-c2ccccc2)c(=S)n1-c1ccccc1)c1cccs1	> 100 µM	> 100 µM	86 µM	> 100 µM	> 100 µM	> 100 µM	> 100 µM	> 100 µM	> 100 µM	> 100 µM	–	–	–	–	–	–	–	–	–
Cc1ccc(S(=O)(=O)[C@@H](Cl)[C@H]2N=C(Cl)NN=C2c2ccccc2)cc1	> 100 µM	42.7 µM	83.1 µM	61 µM	35.9 µM	50.8 µM	31.3 µM	> 100 µM	> 100 µM	42.6 µM	–	–	–	–	–	–	–	–	–
CO[C@H]1O[C@@H]2CO[C@@H](c3ccccc3)O[C@H]2[C@@H]2C/C=C\CCC[C@@]12O	38.1 µM	35.5 µM	42.2 µM	40 µM	43.4 µM	88.3 µM	30.5 µM	52.5 µM	49.4 µM	45.9 µM	–	–	–	–	–	–	–	–	–
CCOc1ccc(N=NC2C(=O)N(C(=O)CC(=O)Nc3ccccc3)N=C2C)cc1 (stereo not drawn)	> 100 µM	> 100 µM	> 100 µM	> 100 µM	> 100 µM	> 100 µM	> 100 µM	> 100 µM	> 100 µM	> 100 µM	–	–	–	–	–	–	–	–	–
Nc1nccc(NCC2(CO)CCC2)n1	> 100 µM	> 100 µM	> 100 µM	> 100 µM	> 100 µM	> 100 µM	> 100 µM	> 100 µM	> 100 µM	–	–	–	–	–	–	–	–	–	–
Cc1ccc(-n2cc(-c3ccc(Cl)cc3)c3c(NN)ncnc32)cc1	14.3 µM	22.6 µM	11.5 µM	7.96 µM	15.8 µM	15.3 µM	12.8 µM	43.2 µM	9.28 µM	3.75 µM	–	–	–	–	–	–	–	–	–
C=C[C@@]1(O)CCCC[C@@H]1CC(Sc1ccccc1)Sc1ccccc1	> 100 µM	29.5 µM	> 100 µM	38.7 µM	26.8 µM	39.7 µM	–	32.9 µM	> 100 µM	37 µM	–	–	–	–	–	–	–	–	–
NC(Cc1c[nH]c2cc([N+](=O)[O-])ccc12)C(=O)O (stereo not drawn)	> 100 µM	> 100 µM	> 100 µM	> 100 µM	> 100 µM	> 100 µM	> 100 µM	> 100 µM	> 100 µM	> 100 µM	–	–	–	–	–	–	–	–	–
CCOC(=O)NNC(=O)NCc1ccccc1CNC(=O)NNC(=O)OCC	–	–	> 100 µM	> 100 µM	> 100 µM	> 100 µM	> 100 µM	> 100 µM	> 100 µM	> 100 µM	–	–	–	–	–	–	–	–	–
COc1ccc(/C=C/C(=O)c2ccc(-n3cc(CN4CCN(c5cc6c(cc5F)c(=O)c(C(=O)O)cn6C5CC5)CC4)nn3)cc2)cc1OC	45.2 µM	> 100 µM	> 100 µM	6.63 µM	> 100 µM	> 100 µM	4.93 µM	25.7 µM	> 100 µM	–	3.5 µM	2.49 µM	3.32 µM	2.39 µM	4.25 µM	> 100 µM	1.84 µM	3.7 µM	0.434 µM
COC(=O)c1c(C)cccc1C1CN=NC12Cc1ccc(C)c(C)c1C2=O (stereo not drawn)	> 100 µM	> 100 µM	66.4 µM	> 100 µM	75.4 µM	> 100 µM	> 100 µM	> 100 µM	> 100 µM	96.2 µM	–	–	–	–	–	–	–	–	–
CC(C)CC(NC(=O)OC(C)(C)C)C(=O)NC(CC(=O)OCc1ccccc1)C(=O)OCc1ccccc1 (stereo not drawn) (Boc-Leu-Asp(OBn)-OBn; configuration not given here)	–	> 100 µM	76.9 µM	> 100 µM	79.2 µM	> 100 µM	49.6 µM	> 100 µM	63.8 µM	38.6 µM	–	–	–	–	–	–	–	–	–
Cc1ccc(NC2=NCCO2)c2c1CCC2	> 100 µM	> 100 µM	> 100 µM	> 100 µM	> 100 µM	50 µM	67.9 µM	> 100 µM	53.3 µM	57 µM	–	–	–	–	–	–	–	–	–
CC(=O)OC1C2CCC3C(C)(O)C4CC(O)C(C)(C)C4(O)C(O)CC13CC2(C)O (stereo not drawn)	> 100 µM	> 100 µM	–	> 100 µM	> 100 µM	> 100 µM	> 100 µM	> 100 µM	> 100 µM	> 100 µM	–	–	–	–	–	–	–	–	–
CN1CN(c2ccccc2)C2(CCN(CCCCCCF)CC2)C1=O	> 100 µM	93.3 µM	> 100 µM	> 100 µM	> 100 µM	40.3 µM	> 100 µM	> 100 µM	> 100 µM	> 100 µM	–	–	–	–	–	–	–	–	–
